Molecular target: S. pneumoniae Topoisomerase IV ATPase (ParE) (Streptococcus pneumoniae serotype 4, UniProt Q59961)
Test: S. pneumoniae Topoisomerase IV ATPase inhibition
Assay type: biochemical
Details: values marked * are an average of two or more data points, read-out: % Inh (13 μM) of S. pneumoniae Topoisomerase IV ATPase
Outline: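 ParE ATPase (1.25 nM) run with 160 μM ATP and 5 μg/ml sheared salmon sperm DNA in Tris pH 8.0, Mg2+, glycerol, DTT, Brij-35. Phosphate released read by malachite green/molybdate absorbance at 650 nm. IC50 from 10 compound concentrations; DMSO (2%) as 0% and EDTA (20 μM) as 100% inhibition.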

Sequence of S. pneumoniae Topoisomerase IV ATPase (ParE) (Q59961 whole entry): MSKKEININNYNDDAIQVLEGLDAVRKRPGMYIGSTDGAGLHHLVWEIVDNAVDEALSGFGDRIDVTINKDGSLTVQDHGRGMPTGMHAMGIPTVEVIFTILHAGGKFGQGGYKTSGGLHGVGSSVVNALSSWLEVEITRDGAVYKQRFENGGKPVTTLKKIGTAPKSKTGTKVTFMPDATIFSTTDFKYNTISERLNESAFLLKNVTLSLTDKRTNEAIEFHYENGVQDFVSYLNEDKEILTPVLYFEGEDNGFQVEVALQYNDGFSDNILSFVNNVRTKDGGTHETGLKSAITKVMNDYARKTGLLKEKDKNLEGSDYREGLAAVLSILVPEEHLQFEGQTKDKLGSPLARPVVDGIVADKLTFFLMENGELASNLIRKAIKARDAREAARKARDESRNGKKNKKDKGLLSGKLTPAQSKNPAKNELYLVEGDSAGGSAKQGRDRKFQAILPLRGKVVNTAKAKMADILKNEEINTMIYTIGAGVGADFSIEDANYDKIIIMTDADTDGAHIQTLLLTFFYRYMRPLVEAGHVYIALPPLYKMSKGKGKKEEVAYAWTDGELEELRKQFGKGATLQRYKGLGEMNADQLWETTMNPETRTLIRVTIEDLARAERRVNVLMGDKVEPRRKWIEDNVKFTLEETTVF

| SMILES | inhibition at 13 µM |
| --- | --- |
| COc1cc(Nc2ncc(-c3cnc(SC)c(C(=O)O)c3)c(-n3nc(C(F)(F)F)cc3C)n2)cc(OC)c1 [Example 854, 5-{2-[(3,5-dimethoxyphenyl)amino]-4-[5-methyl-3-(trifluoromethyl)-1H-pyrazol-1-yl]pyrimidin-5-yl}-2-(methylsulfanyl)pyridine-3-carboxylic acid] | 100% |
| COc1cc(Nc2ncc(-c3cnc(OC)c(C(=O)NS(=O)(=O)c4c(C)noc4C)c3)c(-n3nc(C(F)(F)F)cc3C)n2)cc(OC)c1 [Example 836, 5-{2-[(3,5-dimethoxyphenyl)amino]-4-[5-methyl-3-(trifluoromethyl)-1H-pyrazol-1-yl]pyrimidin-5-yl}-N-[(3,5-dimethyl-1,2-oxazol-4-yl)sulfonyl]-2-methoxypyridine-3-carboxamide] | 94% |
| O=C(O)c1cc(-c2cnc(Nc3ccc(F)c(Cl)c3)nc2N2CCOCC2)cs1 [Example 483, 4-{2-[(3-chloro-4-fluorophenyl)amino]-4-(morpholin-4-yl)pyrimidin-5-yl}thiophene-2-carboxylic acid] | 66% |
| CCOC(=O)c1cn(CCOC)c2ccc(-c3cnc(Nc4ccc(F)c(Cl)c4)nc3NCCCOC)cc2c1=O [Example 177, ethyl 6-(2-(3-chloro-4-fluorophenylamino)-4-(3-methoxypropylamino)-pyrimidin-5-yl)-1-(2-methoxyethyl)-4-oxo-1,4-dihydroquinoline-3-carboxylate] | 68.9% |
| COc1cc(F)cc(Nc2ncc(-c3cnc(OC)c(C(=O)O)c3)c(-n3nc(C(F)(F)F)cc3C)n2)c1 [Example 915, 5-(2-(3-fluoro-5-methoxyphenylamino)-4-(5-methyl-3-(trifluoromethyl)-1H-pyrazol-1-yl)pyrimidin-5-yl)-2-methoxynicotinic acid] | 100% |
| CN(C)CCCNc1nc(Nc2ccc(F)c(Cl)c2)ncc1-c1ccc(CCC(=O)O)cc1 [Example 27, 3-[4-(2-[(3-chloro-4-fluorophenyl)amino]-4-{[3-(dimethylamino)propyl]-amino}pyrimidin-5-yl)phenyl]propanoic acid] | 89.2% |
| Cc1cc(C(F)(F)F)nn1-c1nc(Nc2cc(F)cc(F)c2)ncc1-c1cccc(/C=C/C(=O)O)c1 [Example 620, (2E)-3-(3-{2-[(3,5-difluorophenyl)amino]-4-[5-methyl-3-(trifluoromethyl)-1H-pyrazol-1-yl]pyrimidin-5-yl}phenyl)prop-2-enoic acid] | 96% |
| COc1cc(Nc2ncc(-c3cncnc3)c(N[C@@H]3CCOC3)n2)cc(OC)c1 [Example 358, (R)-N^2-(3,5-dimethoxyphenyl)-N^4-(tetrahydrofuran-3-yl)-5,5′-bipyrimidine-2,4-diamine] | 63% |
| O=C(O)c1cncc(-c2cnc(Nc3ccc(F)c(Cl)c3)nc2-n2ccc(C(F)(F)F)n2)c1 [Example 320, 5-{2-[(3-chloro-4-fluorophenyl)amino]-4-[3-(trifluoromethyl)-1H-pyrazol-1-yl]pyrimidin-5-yl}pyridine-3-carboxylic acid] | 101% |
| O=C(O)/C=C/c1cccc(-c2cnc(Nc3ccc(F)c(Cl)c3)nc2-n2nccn2)c1 [Example 324, (2E)-3-(3-{2-[(3-chloro-4-fluorophenyl)amino]-4-(2H-1,2,3-triazol-2-yl)pyrimidin-5-yl}phenyl)prop-2-enoic acid] | 76.9% |
| CCNC(=O)c1cccc(-c2cnc(Nc3ccc(F)c(Cl)c3)nc2NCCCN(C)C)c1 [Example 361, 3-(2-(3-chloro-4-fluorophenylamino)-4-(3-(dimethylamino)propylamino)pyrimidin-5-yl)-N-ethylbenzamide] | 94.8% |
| COc1cc(Nc2ncc(-c3cncc(C(=O)O)c3)c(N3CCOCC3)n2)ccc1F [Example 441] | 74% |
| CCOC(=O)c1cncc(-c2cnc(Nc3ccc(F)c(Cl)c3)nc2NCCOC(C)C)c1 [Example 109, ethyl 5-[2-[(3-chloro-4-fluorophenyl)amino]-4-(2-propan-2-yloxyethylamino)pyrimidin-5-yl]pyridine-3-carboxylate] | 52.4% |
| COc1nc(OC)c(-c2cnc(Nc3ccc(F)c(Cl)c3)nc2-n2nc(C(F)(F)F)cc2C)cc1C(=O)O [Example 1131, 5-(2-(3-chloro-4-fluorophenylamino)-4-(5-methyl-3-(trifluoromethyl)-1H-pyrazol-1-yl)pyrimidin-5-yl)-2,6-dimethoxynicotinic acid] | 100% |
| CCOC(=O)c1cncc(-c2cnc(Nc3ccc(F)c(Cl)c3)nc2NCCN2CCOCC2)c1 [Example 100, 5-[2-(3-Chloro-4-fluoro-phenylamino)-4-(2-morpholin-4-yl-ethylamino)-pyrimidin-5-yl]-nicotinic acid ethyl ester] | 74.2% |
| Cc1nccn1-c1nc(Nc2ccc(F)c(Cl)c2)ncc1-c1cncc(C(=O)O)c1 [Example 310, 5-{2-[(3-chloro-4-fluorophenyl)amino]-4-(2-methyl-1H-imidazol-1-yl)pyrimidin-5-yl}pyridine-3-carboxylic acid] | 80% |

| SMILES | inhibition at 13 µM |
| --- | --- |
| CCOC(=O)c1cncc(-c2cnc(Nc3ccc(F)c(Cl)c3)nc2NCCNC(C)=O)c1 [Example 94, 5-[4-(2-Acetylamino-ethylamino)-2-(3-chloro-4-fluoro-phenylamino)-pyrimidin-5-yl]-nicotinic acid ethyl ester] | 77.5% |
| CC(=O)N1CCN(c2nc(Nc3ccc(F)c(Cl)c3)ncc2-c2ccc(C(=O)O)s2)CC1 [Example 982, 5-(4-(4-Acetylpiperazin-1-yl)-2-(3-chloro-4-fluorophenylamino)pyrimidin-5-yl)thiophene-2-carboxylic acid] | 100% |
| CNC(=O)/C=C/c1cccc(-c2cnc(Nc3ccc(F)c(Cl)c3)nc2N2CCOCC2)c1 [Example 375, (E)-3-(3-(2-(3-chloro-4-fluorophenylamino)-4-morpholinopyrimidin-5-yl)phenyl)-1H-methylacrylamide] | 75.9% |
| CN(C)CCCNc1nc(Nc2ccc(F)c(Cl)c2)ncc1-c1cn[nH]c1 [Example 20, N^2-(3-chloro-4-fluorophenyl)-N^4-[3-(dimethylamino)propyl]-5-(1H-pyrazol-4-yl)pyrimidine-2,4-diamine] | 74.6% |
| CCOC(=O)c1cncc(-c2cnc(Nc3ccc(F)c(Cl)c3)nc2NCCCN2CCS(=O)(=O)CC2)c1 [Example 105, 5-{2-(3-Chloro-4-fluoro-phenylamino)-4-[3-(1,1-dioxo-1λ^6-thiomorpholin-4-yl)-propylamino]-pyrimidin-5-yl}-nicotinic acid ethyl ester] | 79.2% |
| COCCCNc1nc(Nc2ccc(F)c(Cl)c2)ncc1-c1ccc(C(=O)O)s1 [Example 178, 5-(2-(3-chloro-4-fluorophenylamino)-4-(3-methoxypropylamino)-pyrimidin-5-yl)thiophene-2-carboxylic acid] | 83% |
| O=C(O)/C=C/c1cccc(-c2cnc(Nc3ccc(F)c(Cl)c3)nc2N[C@@H]2CCOC2)c1 [Example 295, (R,E)-3-(3-(2-(3-chloro-4-fluorophenylamino)-4-(tetrahydrofuran-3-ylamino)pyrimidin-5-yl)phenyl)acrylic acid] | 82.7% |
| Cc1cc(C)cc(Nc2ncc(-c3cc(C(=O)O)c(=O)n(C)c3)c(-n3ccc(C(F)(F)F)n3)n2)c1 [Example 922, 5-(2-(3,5-dimethylphenylamino)-4-(3-(trifluoromethyl)-1H-pyrazol-1-yl)pyrimidin-5-yl)-1-methyl-2-oxo-1,2-dihydropyridine-3-carboxylic acid] | 100% |
| CCOC(=O)c1cncc(-c2cnc(Nc3ccc(F)c(Cl)c3)nc2NCc2ccco2)c1 [Example 110, ethyl 5-[2-[(3-chloro-4-fluorophenyl)amino]-4-(furan-2-ylmethylamino)pyrimidin-5-yl]pyridine-3-carboxylate] | 27.6% |
| COc1cc(Nc2ncc(-c3cnc(OC)c(C(=O)NOCCN4CCOCC4)c3)c(-n3ccc(C(F)(F)F)n3)n2)cc(OC)c1 [Example 1167, 5-(2-(3,5-dimethoxyphenylamino)-4-(3-(trifluoromethyl)-1H-pyrazol-1-yl)pyrimidin-5-yl)-2-methoxy-N-(2-morpholinoethoxy)nicotinamide] | 100% |
| CN(CC(=O)O)c1cccc(-c2cnc(Nc3ccc(F)c(Cl)c3)nc2-n2ccc(C(F)(F)F)n2)c1 [Example 598, N-(3-{2-[(3-chloro-4-fluorophenyl)amino]-4-[3-(trifluoromethyl)-1H-pyrazol-1-yl]pyrimidin-5-yl}phenyl)-N-methylglycine] | 82% |
| Cc1cc(C(F)(F)F)nn1-c1nc(Nc2ccc(F)c(Cl)c2)ncc1-c1cncc(C(=O)N2CCOCC2)c1 [Example 931, (5-(2-(3-chloro-4-fluorophenylamino)-4-(5-methyl-3-(trifluoromethyl)-1H-pyrazol-1-yl)pyrimidin-5-yl)pyridin-3-yl)(morpholino)methanone] | 100% |
| CN1CCN(CCNc2nc(Nc3ccc(F)c(Cl)c3)ncc2-c2cccc(/C=C/C(=O)O)c2)CC1 [Example 270, (2E)-3-[3-(2-[(3-chloro-4-fluorophenyl)amino]-4-{[2-(4-methylpiperazin-1-yl)ethyl]amino}pyrimidin-5-yl)phenyl]prop-2-enoic acid] | 87.7% |
| COc1cc(Nc2ncc(-c3c[nH]c(=O)c(C(=O)O)c3)c(-n3ccc(C(F)(F)F)n3)n2)cc(OC)c1 [Example 1096, 5-(2-(3,5-Dimethoxyphenylamino)-4-(3-(trifluoromethyl)-1H-pyrazol-1-yl)pyrimidin-5-yl)-2-oxo-1,2-dihydropyridine-3-carboxylic acid] | 100% |
| CCOC(=O)/C=C/c1cccc(-c2cnc(Nc3ccc(F)c(Cl)c3)nc2-n2cccn2)c1 [Example 1112, ethyl (E)-3-[3-[2-[(3-chloro-4-fluorophenyl)amino]-4-pyrazol-1-ylpyrimidin-5-yl]phenyl]prop-2-enoate] | 71% |

— patent US20100137313A1 (ASTRAZENECA AB, priority 2008, published 2010)
